Test results: PubChem BioAssay AID1963429 (Molecular Pharmacology Branch, DTP, NCI, 2024)
Values joined by “and” are separate entries in the source; they are usually repeats but may differ in a detail not shown here. Equal entries are not always repeated.

Test system: 126254-015-R-J1-PDC complex spheroid growth, % test/control
Experiment: Anticancer human tumor 126254-015-R-J1-PDC patient-derived soft tissue sarcoma cell line growth inhibition [Asc]
Conditions: for viability, T/C: stronger effect = lower value
Procedure, shortened: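 Complex solid-tumor spheroids incorporating human endothelial and mesenchymal stem cells received single agents or combinations over half-log dilution ranges anchored to clinical Cmax.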
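Also: spheroids exposed to compound for seven days.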
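For viability, T/C in this document: 100% = DMSO vehicle control wells.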

How did the IC50 (curve of first compound, second compound 0.03 µM) turn out when `NC1CCC(NC2CC2c2ccccc2)CC1` (configuration not stated) + CCN1C(C(=O)NC23CCC(C(=O)O)(CC2)CC3)C(c2cccc(Cl)c2F)C2(C(=O)Nc3cc(Cl)ccc32)C12CCCCC2 was run?
Its IC50 is > 100 nM.

What about the IC50 (curve of first compound, second compound 0.0949 µM) of the same compound?
Its IC50 is > 100 nM.

And the IC50 (curve of first compound, second compound 0.3 µM)?
The IC50 was > 100 nM.

And the IC50 (curve of first compound, second compound 0.949 µM)?
The IC50 was > 100 nM.

And the IC50 (curve of first compound, second compound 3 µM)?
The IC50 was > 100 nM.

And the viability, T/C (second compound 0.03 µM, first compound 0.000316 µM)?
Its viability, T/C is 94.7%.

What about the viability, T/C (second compound 0.03 µM, first compound 0.001 µM) of the same compound?
Its viability, T/C is 97.4%.

And the viability, T/C (second compound 0.03 µM, first compound 0.00316 µM)?
The viability, T/C was 99.1%.

And the viability, T/C (second compound 0.03 µM, first compound 0.01 µM)?
The viability, T/C was 93.1%.

What about the viability, T/C (second compound 0.03 µM, first compound 0.0316 µM) of the same compound?
Its viability, T/C is 79.7%.

And the viability, T/C (second compound 0.03 µM, first compound 0.1 µM)?
The viability, T/C was 83.1%.

What about the viability, T/C (second compound 0.0949 µM, first compound 0.000316 µM) of the same compound?
Its viability, T/C is 85.6%.

And the viability, T/C (second compound 0.0949 µM, first compound 0.001 µM)?
Its viability, T/C is 81%.

And the viability, T/C (second compound 0.0949 µM, first compound 0.00316 µM)?
Its viability, T/C is 93%.

What about the viability, T/C (second compound 0.0949 µM, first compound 0.01 µM) of the same compound?
Its viability, T/C is 83.5%.

And the viability, T/C (second compound 0.0949 µM, first compound 0.0316 µM)?
The viability, T/C was 75.5%.

What about the viability, T/C (second compound 0.0949 µM, first compound 0.1 µM) of the same compound?
Its viability, T/C is 85.9%.

And the viability, T/C (second compound 0.3 µM, first compound 0.000316 µM)?
Its viability, T/C is 87.3%.

What about the viability, T/C (second compound 0.3 µM, first compound 0.001 µM) of the same compound?
Its viability, T/C is 89.4%.

And the viability, T/C (second compound 0.3 µM, first compound 0.00316 µM)?
Its viability, T/C is 82.7%.

And the viability, T/C (second compound 0.3 µM, first compound 0.01 µM)?
Its viability, T/C is 79.7%.

And the viability, T/C (second compound 0.3 µM, first compound 0.0316 µM)?
The viability, T/C was 78.3%.

What about the viability, T/C (second compound 0.3 µM, first compound 0.1 µM) of the same compound?
The viability, T/C was 88.4%.

What about the viability, T/C (second compound 0.949 µM, first compound 0.000316 µM) of the same compound?
The viability, T/C was 90.1%.

And the viability, T/C (second compound 0.949 µM, first compound 0.001 µM)?
Its viability, T/C is 92.3%.

And the viability, T/C (second compound 0.949 µM, first compound 0.00316 µM)?
Its viability, T/C is 97%.

And the viability, T/C (second compound 0.949 µM, first compound 0.01 µM)?
The viability, T/C was 82.5%.

What about the viability, T/C (second compound 0.949 µM, first compound 0.0316 µM) of the same compound?
Its viability, T/C is 81.5%.

What about the viability, T/C (second compound 0.949 µM, first compound 0.1 µM) of the same compound?
Its viability, T/C is 83.7%.

And the viability, T/C (second compound 3 µM, first compound 0.000316 µM)?
The viability, T/C was 90%.

And the viability, T/C (second compound 3 µM, first compound 0.001 µM)?
Its viability, T/C is 96.9%.

And the viability, T/C (second compound 3 µM, first compound 0.00316 µM)?
Its viability, T/C is 78.1%.

What about the viability, T/C (second compound 3 µM, first compound 0.01 µM) of the same compound?
Its viability, T/C is 74.5%.

What about the viability, T/C (second compound 3 µM, first compound 0.0316 µM) of the same compound?
The viability, T/C was 84.1%.

And the viability, T/C (second compound 3 µM, first compound 0.1 µM)?
Its viability, T/C is 85.2%.

Which IC50 (curve of first compound, second compound 0.1 µM) does the source give for `NC(=O)C(=Cn1cnc(-c2cc(C(F)(F)F)cc(C(F)(F)F)c2)n1)c1cncnc1` + Cc1c(S(C)(=O)=O)c(-c2cc(F)cc(N3CCN(c4ccc(NS(=O)(=O)c5ccc(NC(CCN6CCC(C(=O)OCCCP(=O)(O)O)CC6)CSc6ccccc6)c(S(=O)(=O)C(F)(F)F)c5)cc4)CC3)c2)c(-c2ccc(Cl)cc2)n1C(C)C here?
Its IC50 is 30.5 nM.

And the IC50 (curve of first compound, second compound 0.316 µM)?
The IC50 was 37.3 nM.

And the IC50 (curve of first compound, second compound 1 µM)?
Its IC50 is 31.5 nM.

What about the IC50 (curve of first compound, second compound 3.16 µM) of the same compound?
Its IC50 is 29.6 nM.

And the IC50 (curve of first compound, second compound 10 µM)?
The IC50 was 26.1 nM.

What about the viability, T/C (second compound 0.1 µM, first compound 0.000949 µM) of the same compound?
The viability, T/C was 98.5%.

And the viability, T/C (second compound 0.1 µM, first compound 0.003 µM)?
The viability, T/C was 93.8%.

And the viability, T/C (second compound 0.1 µM, first compound 0.00949 µM)?
Its viability, T/C is 74.5%.

What about the viability, T/C (second compound 0.1 µM, first compound 0.03 µM) of the same compound?
Its viability, T/C is 53.2%.

What about the viability, T/C (second compound 0.1 µM, first compound 0.0949 µM) of the same compound?
Its viability, T/C is 22%.

And the viability, T/C (second compound 0.1 µM, first compound 0.3 µM)?
The viability, T/C was 11%.

And the viability, T/C (second compound 0.316 µM, first compound 0.000949 µM)?
Its viability, T/C is 78.1%.

What about the viability, T/C (second compound 0.316 µM, first compound 0.003 µM) of the same compound?
Its viability, T/C is 82.4%.

And the viability, T/C (second compound 0.316 µM, first compound 0.00949 µM)?
Its viability, T/C is 70%.

What about the viability, T/C (second compound 0.316 µM, first compound 0.03 µM) of the same compound?
The viability, T/C was 58%.

What about the viability, T/C (second compound 0.316 µM, first compound 0.0949 µM) of the same compound?
Its viability, T/C is 23%.

What about the viability, T/C (second compound 0.316 µM, first compound 0.3 µM) of the same compound?
Its viability, T/C is 8.76%.

And the viability, T/C (second compound 1 µM, first compound 0.000949 µM)?
Its viability, T/C is 83.4%.

What about the viability, T/C (second compound 1 µM, first compound 0.003 µM) of the same compound?
Its viability, T/C is 74%.

What about the viability, T/C (second compound 1 µM, first compound 0.00949 µM) of the same compound?
The viability, T/C was 76.6%.

And the viability, T/C (second compound 1 µM, first compound 0.03 µM)?
Its viability, T/C is 49.5%.

What about the viability, T/C (second compound 1 µM, first compound 0.0949 µM) of the same compound?
Its viability, T/C is 23%.

What about the viability, T/C (second compound 1 µM, first compound 0.3 µM) of the same compound?
The viability, T/C was 7.77%.

What about the viability, T/C (second compound 3.16 µM, first compound 0.000949 µM) of the same compound?
The viability, T/C was 94.8%.

What about the viability, T/C (second compound 3.16 µM, first compound 0.003 µM) of the same compound?
The viability, T/C was 82.7%.

What about the viability, T/C (second compound 3.16 µM, first compound 0.00949 µM) of the same compound?
Its viability, T/C is 77.5%.

And the viability, T/C (second compound 3.16 µM, first compound 0.03 µM)?
The viability, T/C was 50.6%.

And the viability, T/C (second compound 3.16 µM, first compound 0.0949 µM)?
Its viability, T/C is 19.3%.

What about the viability, T/C (second compound 3.16 µM, first compound 0.3 µM) of the same compound?
The viability, T/C was 7.61%.

What about the viability, T/C (second compound 10 µM, first compound 0.000949 µM) of the same compound?
Its viability, T/C is 85.6%.

What about the viability, T/C (second compound 10 µM, first compound 0.003 µM) of the same compound?
Its viability, T/C is 77.2%.

What about the viability, T/C (second compound 10 µM, first compound 0.00949 µM) of the same compound?
The viability, T/C was 68.4%.

What about the viability, T/C (second compound 10 µM, first compound 0.03 µM) of the same compound?
Its viability, T/C is 49.9%.

And the viability, T/C (second compound 10 µM, first compound 0.0949 µM)?
Its viability, T/C is 19.3%.

And the viability, T/C (second compound 10 µM, first compound 0.3 µM)?
Its viability, T/C is 7.73%.

`NC(=O)C(=Cn1cnc(-c2cc(C(F)(F)F)cc(C(F)(F)F)c2)n1)c1cncnc1` was tested. Which viability, T/C (compound 0.000949 µM) did it give?
Its viability, T/C is 104% and 107% and 110%.

And the viability, T/C (compound 0.003 µM)?
Its viability, T/C is 92.3% and 94% and 104%.

And the viability, T/C (compound 0.00949 µM)?
Its viability, T/C is 86.1% and 82.2% and 93.2%.

And the viability, T/C (compound 0.03 µM)?
Its viability, T/C is 63.4% and 58.5% and 84.6%.

And the viability, T/C (compound 0.0949 µM)?
Its viability, T/C is 33.2% and 34.4% and 57.5%.

What about the viability, T/C (compound 0.3 µM) of the same compound?
The viability, T/C was 13.9% and 15.5% and 19.8%.

And the IC50 (curve of compound)?
The IC50 was 49.9 nM and 45.6 nM and 121 nM.
